Assay results published in article PMC9610975, “Microemulsions Enhance the In Vitro Antioxidant Activity of Oleanolic Acid in RAW 264.7 Cells” (Pharmaceutics, 2022).
Converted amounts (≈) assume the structure as drawn.

Legend:
[1] = Saturation solubility of OA in different oils and surfactants; format: physicochemical; conditions: thermodynamic from solid
Procedure: The solubility of OA in different vehicles was defined by adding an excess of OA to 2 mL of each of the tested solvents/tensides: Water, Capmul PG-8/NF, Capmul PG-12/NF, Capryol 90, Captex 300, Captex 355, Cremophor EL, Etyl Oleate, Isoprpyl myristate, Labrafac lipophile, Labrafilm 1944, Labrafilm 2125, Labrasol, Labrasol ALF, Lauroglycol 90, Nigella Oil, PEG400, Soybean Oil, Sunflower Oil, Transcutol, Triacetine, Tween 20 and Tween 80. Each mixture of solvent and OA was stirred for 24 h at 25 °C, then it was centrifuged at 14,000× g for 10 min. After removing the precipitate, the supernatant was diluted with MeOH and analyzed by HPLC-DAD to determine the concentration of the OA. The analyses were performed in triplicate.

[2] = In vitro release, dialysis bag method, EtOH:PBS (30:70); format: physicochemical; conditions: 6 h, 37 °C
Procedure: The release studies of OA from MEs in comparison to OA solution (SDS 0.5% p/V in H2O) were carried out with the dialysis bag method (regenerated cellulose dialysis membranes, Spectrum Laboratories, Inc., Breda, The Netherlands, MWCO 12–14 kD). Two mL of the OA-MEs or the solution were placed into a 12–14 kDa dialysis membrane and immersed into 200 mL of the release medium at 37 °C under magnetic stirring, using EtOH:PBS (30:70) as the release medium. In vitro release study was also carried out in the simulated gastric fluid (SGF) medium at pH 1.2 for 2 h followed by simulated intestinal fluid (SIF) at pH 6.8 for 6 h. The composition of the gastric fluid was 2 g of NaCl and 7 mL of HCl per liter of deionized water. The intestinal fluid was composed of 6.805 g of KH2PO4 and 0.896 g of NaOH per liter of deionized water. At predetermined time intervals, 1 mL of each release medium was withdrawn and replaced with an equal volume of fresh solution. The OA concentration in samples was finally determined by HPLC-DAD. All studies were performed in triplicate.
To evaluate the kinetics and mechanism of drug release from the microemulsions, the Korsmeyer–Peppas model, Hixson–Crowell model and Higuchi model, and the first order and zero order mathematical models, were used, and the best-fitted model was selected based on high regression coefficient (R^2) value for the release data.

[3] = Parallel artificial membrane permeability assay (PAMPA); format: in vitro ADME; conditions: room temperature, read-out: permeability coefficient (Pe)
Procedure: The test was carried out in a 96-well, MultiScreen-IP PAMPA (Millipore corporation) filter plate in order to evaluate the ability of compounds to diffuse from a donor compartment into an acceptor compartment. EtOH:PBS (30:70) mixture was selected as the acceptor medium for ME-1-OA and EtOH:PBS (5:95) for ME-2-OA. Each membrane was activated with a combination of lecithin and cholesterol, 10 g/L and 8 g/L, respectively, in 1,7-octadiene. Immediately after the deposition of the solution (5 µL), 250 µL of OA solution and appropriately diluted MEs-OA were added to each well of the donor plate. Each receptor plate was filled with 250 µL of acceptor medium. The plate was incubated at room temperature for 1 h. Then, the samples were withdrawn, properly diluted with methanol, centrifuged for 10 min at 14,000× g, and the OA concentration determined by HPLC-DAD. The permeability coefficient Pe (cm/s) was calculated according to the following equation: Pe=−ln 1−CAt/Ceq/A 1/VD+1/VAt where A is the active surface area (0.3 cm^2 × apparent porosity of the filter), VD and VA the well volume of the donor and acceptor plate (mL), respectively, t the incubation time (s), and CAt and CDt the concentration of OA in the acceptor and donor plate at time t, respectively. Ceq was calculated according to: Ceq=CDt × VD+CAt × VA/VA+VD

[4] = set-up: method as in PMID 17163409; conditions: water; cited from earlier work
[5] = set-up: method as in PMID 17163409; conditions: rats, oral doses of 25 and 50 mg/kg; cited from earlier work
RAW 264.7 cells [6] = assay: MTT assay, cell viability without LPS; format: cell-based, murine; conditions: 18 h, compared to untreated control cells
Procedure: The murine macrophages RAW 264.7 cell line (ATCC TIB-71™) was used in this study. Cells were grown in DMEM culture medium supplemented with L-glutamine (2 mM), streptomycin (100 µg/mL) and penicillin (100 U/mL), and 10% Heat-Inactivated Fetal Bovine Serum (HI-FBS), at 37 °C in 5% CO2 atmosphere. HI-FBS was obtained by incubating FBS at 55 °C for 30 min. Upon reaching 90% confluence, macrophage subcultures were prepared by scraping cells and adding appropriate dilutions of the cell suspension to a new plate. The culture medium was replaced every 3 days. The Methyl Thiazolyl Tetrazolium (MTT) assay was used to assess the viability of RAW 264.7 cells under various experimental conditions. Cells were seeded in a 96-well plate (15 × 10^3 cells/well) in complete medium and incubated overnight. Next, cells were starved for 6 h, and then treated for an additional 18 h with OA and OA loaded in the two different formulations (ME-1-OA and ME-2-OA) at various concentrations, in the absence or presence of LPS (1 μg/mL). […] Subsequently, cells were incubated with a 0.5 mg/mL solution of MTT (100 μL/well) for 1 h in the dark at 37 °C. After a wash in PBS, the insoluble formazan crystals were dissolved by adding 100 μL/well of dimethyl sulfoxide (DMSO). The iMARK microplate reader (Bio-Rad, Hercules, CA, USA) was used to measure absorbance values at a wavelength of 595 nm. […]

RAW 264.7 cells [7] = assay: Intracellular ROS production (DCFDA probe) under LPS; format: cell-based, murine; conditions: 18 h
Procedure: In in vitro cell-based experiments, cells were incubated in serum-free DMEM medium (starvation medium) for 6 h and then incubated for an additional 18 h in the presence of LPS (1 μg/mL). LPS was used as a pro-inflammatory and pro-oxidant stimulus. Cells untreated and not exposed to LPS stimulus were used as controls. DCFDA fluorescent probe was used for sensitive and rapid quantification of intracellular ROS in response to LPS stimulus. Cells were seeded in a 96-well plate (20 × 10^3 cells/well) in complete medium and incubated overnight. After 6 h starvation, cells were treated for an additional 18 h with OA and OA loaded in the two different formulations (ME-1-OA and ME-2-OA) at various concentrations, in the absence or presence of LPS (1 μg/mL). […] Next, DCFDA probe (10 μM in PBS) was added to each well and incubated in the dark for 1.5 h at 37 °C. Fluorescence values were measured at excitation and emission wavelengths of 485 and 538 nm, respectively, using a fluorescence microplate reader (Fluoroskan Ascent^TM FL Microplate Fluorometer, Thermo Fisher Scientific, (Waltham, MA, USA). The level of intracellular ROS was normalized to cell viability. Data were reported in percentage terms compared with untreated control cells not exposed to LPS. The experiment was repeated in triplicate.

RAW 264.7 cells [8] = assay: MTT assay, LPS-induced reduction of cell viability; format: cell-based, murine; conditions: 18 h
Procedure: In in vitro cell-based experiments, cells were incubated in serum-free DMEM medium (starvation medium) for 6 h and then incubated for an additional 18 h in the presence of LPS (1 μg/mL). LPS was used as a pro-inflammatory and pro-oxidant stimulus. Cells untreated and not exposed to LPS stimulus were used as controls. The Methyl Thiazolyl Tetrazolium (MTT) assay was used to assess the viability of RAW 264.7 cells under various experimental conditions. Cells were seeded in a 96-well plate (15 × 10^3 cells/well) in complete medium and incubated overnight. Next, cells were starved for 6 h, and then treated for an additional 18 h with OA and OA loaded in the two different formulations (ME-1-OA and ME-2-OA) at various concentrations, in the absence or presence of LPS (1 μg/mL). […] Subsequently, cells were incubated with a 0.5 mg/mL solution of MTT (100 μL/well) for 1 h in the dark at 37 °C. After a wash in PBS, the insoluble formazan crystals were dissolved by adding 100 μL/well of dimethyl sulfoxide (DMSO). The iMARK microplate reader (Bio-Rad, Hercules, CA, USA) was used to measure absorbance values at a wavelength of 595 nm. Data were reported in percentage terms compared with untreated control cells not exposed to LPS. The experiment was repeated in triplicate.

[9] = LPS 1 μg/mL, compared with unstimulated control cells

## CC1(C)CC[C@]2(C(=O)O)CC[C@]3(C)C(=CC[C@@H]4[C@@]5(C)CC[C@H](O)C(C)(C)[C@@H]5CC[C@]43C)[C@@H]2C1 [OA, Oleanolic acid]
[1]; oil or lipid, in Capmul PG-8/NF, 24 h at 25 °C
  solubility at 24 h: 19.72 ± 0.13 mg/mL (≈ 43.2 mM)
[1]; oil or lipid, in Capmul PG-12/NF, 24 h at 25 °C
  solubility at 24 h: 16.4 ± 1.04 mg/mL (≈ 36 mM)
[1]; oil or lipid, in Capryol 90, 24 h at 25 °C
  solubility at 24 h: 24.9 ± 0.9 mg/mL (≈ 54.6 mM)
[1]; oil or lipid, in Captex 300, 24 h at 25 °C
  solubility at 24 h: 3.74 ± 0.1 mg/mL (≈ 8.19 mM)
[1]; oil or lipid, in Captex 355, 24 h at 25 °C
  solubility at 24 h: 3.19 ± 0.24 mg/mL (≈ 6.98 mM)
[1]; oil or lipid, in Etyloleate, 24 h at 25 °C
  solubility at 24 h: 2.13 ± 0.21 mg/mL (≈ 4.66 mM)
[1]; oil or lipid, in Isopropil myristate, 24 h at 25 °C
  solubility at 24 h: 9.44 ± 1.05 mg/mL (≈ 20.7 mM)
[1]; oil or lipid, in Labrafac Lipophile, 24 h at 25 °C
  solubility at 24 h: 13.3 ± 0.87 mg/mL (≈ 29.1 mM)
[1]; oil or lipid, in Labrasol ALF, 24 h at 25 °C
  solubility at 24 h: 12 ± 0.84 mg/mL (≈ 26.2 mM)
[1]; oil or lipid, in Labrasol, 24 h at 25 °C
  solubility at 24 h: 13.3 ± 0.21 mg/mL (≈ 29.1 mM)
[1]; oil or lipid, in Lauroglycole 90, 24 h at 25 °C
  solubility at 24 h: 10.8 ± 0.56 mg/mL (≈ 23.5 mM)
[1]; oil or lipid, in Nigella oil, 24 h at 25 °C
  solubility at 24 h: 35.4 ± 1.41 mg/mL (≈ 77.5 mM)
[1]; oil or lipid, in Soybean oil, 24 h at 25 °C
  solubility at 24 h: 1.06 ± 0.17 mg/mL (≈ 2.32 mM)
[1]; oil or lipid, in Sunflower oil, 24 h at 25 °C
  solubility at 24 h: 11.8 ± 0.46 mg/mL (≈ 25.7 mM)
[1]; oil or lipid, in Triacetine, 24 h at 25 °C
  solubility at 24 h: 3.09 ± 0.17 mg/mL (≈ 6.77 mM)
[1]; organic solvent or mixture, in PEG 400, 24 h at 25 °C
  solubility at 24 h: 8.49 ± 0.58 mg/mL (≈ 18.6 mM)
[1]; organic solvent or mixture, in Transcutol HP, 24 h at 25 °C
  solubility at 24 h: 41 ± 2.41 mg/mL (≈ 89.8 mM)
[1]; in Cremophor EL, 24 h at 25 °C
  solubility at 24 h: 28.3 ± 0.93 mg/mL (≈ 62 mM)
[1]; in Tween 20, 24 h at 25 °C
  solubility at 24 h: 6.19 ± 0.58 mg/mL (≈ 13.6 mM)
[1]; in Tween 80, 24 h at 25 °C
  solubility at 24 h: 4.56 ± 0.36 mg/mL (≈ 9.98 mM)
[2]
  OA released: 23.6 ± 1.25%
[3]
  Papp at 1 h: 0.369 ×10⁻⁶ cm/s
[4]
  aqueous solubility: 1.75 ng/mL (≈ 3.83e-06 mM)
[5]
  oral bioavailability: 0.7%
RAW 264.7 cells [6]; 0.05–1 μg/mL
  change in cell viability: No significant change in cell viability
RAW 264.7 cells [6]; 2.5–10 μg/mL
  reduction in cell viability: 25–30%
RAW 264.7 cells [7]; free OA 0.25–1 μg/mL with LPS 1 μg/mL
  effect against LPS-induced intracellular ROS production: mild but significant
RAW 264.7 cells [8]; free OA 0.05–1 μg/mL with LPS 1 μg/mL
  protective effect against LPS-induced reduction of cell viability: no significant protective effect

## lipopolysaccharide [LPS, reference compound]
RAW 264.7 cells [7]; [9]
  intracellular ROS levels: 165 ± 7%
RAW 264.7 cells [8]; [9]
  cell viability: 70 ± 7%
